For series [1], the target named is T1, Polycomb protein EED (Homo sapiens, UniProt O75530). Kind of series: Displacement of H3K27me3 from EED (unknown origin) by competitive binding assay.
Target sequence in this assay (O75530 whole entry): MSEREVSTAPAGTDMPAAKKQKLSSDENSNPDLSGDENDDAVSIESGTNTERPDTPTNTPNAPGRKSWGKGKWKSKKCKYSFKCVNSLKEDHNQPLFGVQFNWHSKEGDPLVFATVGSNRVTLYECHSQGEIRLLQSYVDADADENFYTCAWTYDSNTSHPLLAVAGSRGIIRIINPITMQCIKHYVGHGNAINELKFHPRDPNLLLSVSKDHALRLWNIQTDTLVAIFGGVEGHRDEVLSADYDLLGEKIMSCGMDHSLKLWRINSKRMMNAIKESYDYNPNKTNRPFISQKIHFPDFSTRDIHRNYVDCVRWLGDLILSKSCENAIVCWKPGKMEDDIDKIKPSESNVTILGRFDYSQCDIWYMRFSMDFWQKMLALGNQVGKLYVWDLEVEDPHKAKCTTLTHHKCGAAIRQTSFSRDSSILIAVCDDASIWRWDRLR
Series [2] deals with KARPAS-422. Kind of series: Antitumor activity against human KARPAS-422 cells xenografted in mouse assessed as tumor growth inhibition at 100 mg/kg, po administered twice daily for 36 days relative to control. Type of series: functional. The following applies: KARPAS-422, 864 h, time 36 day, read-out: TGI.
A further series concerns Pfeiffer. In words: Antitumor activity against human Pfeiffer cells xenografted in mouse assessed as tumor growth inhibition at 100 mg/kg, po administered twice daily for 36 days relative to control. Type of series: functional. The following applies: 864 h, time 36 day, read-out: TGI.
A short description of series [3]: Inhibition of EED/EZH2 (unknown origin) interaction by fluorescence polarization assay. The arrangement: species or system Homo sapiens.
Series [4] deals with T1, Polycomb protein EED. Kind of series: Binding affinity to his tagged EED (1 to 441 residues) (unknown origin) incubated for 20 mins in presence of biotinylated H3K27me3 peptide (19 to 33 residues) by alphascreen competitive binding assay.
Target sequence in this assay (O75530 whole entry): as above
The target in series [5] is T1, Polycomb protein EED. Kind of series: Stabilization of EED (unknown origin) assessed as change in melting temperature by thermal shift assay. The following applies: tested as the 2H-labelled form.
Target sequence in this assay (O75530 2-441 limits assumed): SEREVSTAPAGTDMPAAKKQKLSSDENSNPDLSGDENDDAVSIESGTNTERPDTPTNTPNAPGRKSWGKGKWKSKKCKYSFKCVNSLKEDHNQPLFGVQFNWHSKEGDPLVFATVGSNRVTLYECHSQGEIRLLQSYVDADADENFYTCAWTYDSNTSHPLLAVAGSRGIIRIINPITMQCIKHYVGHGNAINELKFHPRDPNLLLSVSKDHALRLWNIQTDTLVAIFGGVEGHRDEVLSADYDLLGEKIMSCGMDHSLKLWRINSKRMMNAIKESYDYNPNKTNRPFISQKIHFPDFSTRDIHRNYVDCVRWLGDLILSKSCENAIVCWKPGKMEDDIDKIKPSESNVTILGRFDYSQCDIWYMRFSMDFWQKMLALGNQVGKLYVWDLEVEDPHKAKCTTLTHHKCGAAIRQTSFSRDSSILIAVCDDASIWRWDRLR
A further series concerns the target EZH2/SUZ12/EED complex (Homo sapiens, UniProt O75530+Q15022+Q15910). Kind of series: Binding affinity to PRC2 complex of EZH2-EED-SUZ12 (unknown origin) assessed as dissociation constant by isothermal titration calorimetry method. Type of series: protein-complex assay.
The target in series [6] is EZH2/SUZ12/EED complex (Homo sapiens) (UniProt Q15910+O75530+Q15022).
EZH2/SUZ12/EED complex (Homo sapiens), sequence (O75530 2-441 partner limits assumed): as the sequence (O75530 2-441 limits assumed) above
EZH2/SUZ12/EED complex (Homo sapiens), sequence (Q15022 whole entry partner): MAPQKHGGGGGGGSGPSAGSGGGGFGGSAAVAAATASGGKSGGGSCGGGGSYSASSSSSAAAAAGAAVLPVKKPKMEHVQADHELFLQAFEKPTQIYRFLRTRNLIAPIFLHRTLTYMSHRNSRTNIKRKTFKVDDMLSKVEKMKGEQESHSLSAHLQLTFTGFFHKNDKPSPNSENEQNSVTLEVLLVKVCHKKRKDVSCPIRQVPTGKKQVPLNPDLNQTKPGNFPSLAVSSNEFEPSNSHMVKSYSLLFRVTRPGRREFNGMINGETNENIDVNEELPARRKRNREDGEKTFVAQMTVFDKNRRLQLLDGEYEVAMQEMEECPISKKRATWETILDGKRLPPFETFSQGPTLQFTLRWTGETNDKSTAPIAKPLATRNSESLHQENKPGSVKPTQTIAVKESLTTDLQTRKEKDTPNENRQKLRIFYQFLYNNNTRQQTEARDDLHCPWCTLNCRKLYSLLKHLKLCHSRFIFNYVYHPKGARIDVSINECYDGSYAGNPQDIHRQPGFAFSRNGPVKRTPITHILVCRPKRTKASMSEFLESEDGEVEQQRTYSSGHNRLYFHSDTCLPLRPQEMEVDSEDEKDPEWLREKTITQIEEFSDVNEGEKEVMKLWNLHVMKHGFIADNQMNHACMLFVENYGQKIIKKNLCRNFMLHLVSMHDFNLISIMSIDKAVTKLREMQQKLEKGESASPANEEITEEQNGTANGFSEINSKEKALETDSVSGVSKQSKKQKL
EZH2/SUZ12/EED complex (Homo sapiens), sequence (Q15910 whole entry): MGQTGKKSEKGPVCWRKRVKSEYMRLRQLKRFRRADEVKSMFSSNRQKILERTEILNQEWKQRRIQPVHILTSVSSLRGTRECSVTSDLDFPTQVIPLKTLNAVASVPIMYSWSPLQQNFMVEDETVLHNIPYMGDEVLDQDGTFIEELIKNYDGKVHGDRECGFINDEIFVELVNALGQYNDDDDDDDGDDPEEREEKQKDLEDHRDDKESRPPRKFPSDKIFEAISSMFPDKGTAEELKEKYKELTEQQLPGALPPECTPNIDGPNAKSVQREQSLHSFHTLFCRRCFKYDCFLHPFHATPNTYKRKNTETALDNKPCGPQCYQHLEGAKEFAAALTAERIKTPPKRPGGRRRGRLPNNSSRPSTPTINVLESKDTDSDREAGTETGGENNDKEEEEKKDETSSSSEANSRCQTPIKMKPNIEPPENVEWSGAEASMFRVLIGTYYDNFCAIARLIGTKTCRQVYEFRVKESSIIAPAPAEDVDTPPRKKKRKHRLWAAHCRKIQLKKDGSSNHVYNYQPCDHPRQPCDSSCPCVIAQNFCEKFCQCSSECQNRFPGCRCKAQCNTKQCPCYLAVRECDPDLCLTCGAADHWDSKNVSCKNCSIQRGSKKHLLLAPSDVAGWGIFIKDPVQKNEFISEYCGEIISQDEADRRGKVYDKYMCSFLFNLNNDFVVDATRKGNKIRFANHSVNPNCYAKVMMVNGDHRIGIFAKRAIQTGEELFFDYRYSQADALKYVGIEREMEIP
Description: Stabilization of PRC2 complex of EZH2-EED-SUZ12 (unknown origin) assessed as thermal stability by measuring increase in melting temperature by thermal shift assay
Series [7] in a line: Inhibition of PRC2 (unknown origin) using H3K27me0 as peptide substrate by LC-MS based analysis. The arrangement: species or system Homo sapiens.
In series [8] the test system is KARPAS-422. Kind of series: Antitumor activity against human KARPAS-422 cells xenografted in mouse at 40 mg/kg via oral gavage and mesured after 32 days by caliper method relative to control. Particulars: KARPAS-422, 768 h, time 32 day, read-out: TGI. Format: functional.
The test system of series [9] is KARPAS-422. Kind of series: Synergistic growth inhibition against human KARPAS-422 cells assessed as reduction in H3K27me3 level by measuring synergistic score upto 10 uM measured after 4 days in presence of EI1. Particulars: time 4 day. Type of series: functional.
Series [10] relates to KARPAS-422. Kind of series: Synergistic growth inhibition against human KARPAS-422 cells assessed as reduction in cell proliferation by measuring synergistic score at upto 10 uM measured after 6 days in presence of EI1. Type of series: functional. Particulars: time 6 day.
The target of series [11] is T1, Polycomb protein EED. In words: Binding affinity to C-terminal histidine tagged EED (unknown origin) expressed in Escherichia coli BL21(DE3) incubated for 15 mins by fluorescence polarization analysis.
Target sequence in this assay (O75530 whole entry): as the sequence (O75530 whole entry) above
Series [12] deals with KARPAS-422. Kind of series: Synergistic cell viability against human KARPAS-422 cells by measuring combination index score at 0.3 to 3 uM measured after 7 days in presence of GSK126. Format: functional. Particulars: dose 0.3-3 µM; time 7 day.
Series [13] can be described thus: Synergistic cell viability against human MLL-AF9 cells by measuring combination index score at 0.3 to 3 uM measured after 7 days in presence of GSK126. Type of series: functional. The following applies: dose 0.3-3 µM; time 7 day.
Series [14] in a line: Inhibition of human N- terminal 6 his sumo-tagged EED (81 to 441 residues)/EZH2(39 to 63 residues) (unknown origin) interaction expressed in Escherichia coli BL21(DE3) incubated for 2 hrs by fluorescence polarization based competitive assay.
The nature of series [15]: Oral bioavailability in mouse. Type of series: ADME, organism-based. Particulars: in vivo.

Bridge positions count the residues as written; N and C are the ends. Square brackets hold non-standard residues; d marks the D form. Peptide text beside a SMILES is read from it. ξ: configuration not given here. S5 = C=CCCC[C@](C)(N)C(=O)O; ξIle = CC[C@H](C)C(N)C(=O)O

EZH2/SUZ12/EED complex, sequence (Q15910 whole entry): as the sequence (Q15910 whole entry) above
EZH2/SUZ12/EED complex, sequence (O75530 whole entry): as the sequence (O75530 whole entry) above
EZH2/SUZ12/EED complex, sequence (Q15022 whole entry): as the sequence (Q15022 whole entry partner) above

`[2H]C([2H])(Nc1ncc(-c2cccnc2C)c(=O)[nH]1)c1c(F)ccc2c1CCO2` displayed a 50% inhibitory concentration (IC50) on Polycomb protein EED [1] of 4.5 nM. For the same compound, the inhibition in vivo at 100 mg/kg in the series with KARPAS-422 [2] turned out to be 85%; with Pfeiffer, 96%.

As for `CN1CCc2cccc3c2[C@H]1Cc1ccc(O)c(O)c1-3` [APOMORPHINE], half-maximal inhibition in series [3] (IC50) was put at 15.5 µM.

On to `Cc1cc(C)n(-c2cc(N3CCCc4ccccc43)ccc2[N+](=O)[O-])n1`, for which the 50% inhibitory concentration (IC50) at Polycomb protein EED [4] is 8.76 µM.

`Cc1ncccc1-c1cnc(NCc2c(F)ccc3c2CCO3)[nH]c1=O`: at Polycomb protein EED [5], the ΔTm is 6 °C.

Take `CS(=O)(=O)c1ccc(-c2cnc(NCc3ccco3)n3cnnc23)cc1`: the Kd on EZH2/SUZ12/EED complex is 82 nM. In series [6], the ΔTm is > 8 °C. The same compound came in with a concentration for half-maximal inhibition (IC50) in series [7] of 23.4 nM. The inhibition in vivo at 40 mg/kg in the series with KARPAS-422 [8] worked out at 100%. Also, the Activity with KARPAS-422 [9] is given as 2.17; with KARPAS-422 [10], 1.67.

Take `CC[C@H](C)C1NC(=O)[C@H](CCCCN)NC(=O)[C@@](C)(NC(=O)[C@H](CCCNC(=N)N)NC(=O)[C@H](CC(N)=O)NC(=O)[C@H](CO)NC(=O)[C@H](CO)NC(=O)[C@H](Cc2ccccc2)NC(C)=O)CCC/C=C/CCC[C@@](C)(C(=O)N[C@@H](CCCNC(=N)N)C(=O)N[C@H](C(=O)N[C@@H](CCC(N)=O)C(=O)N[C@H](C(=O)N[C@@H](CC(C)C)C(=O)N[C@@H](CC(N)=O)C(=O)N[C@@H](CCC(N)=O)C(=O)N[C@@H](CCC(=O)O)C(=O)N[C@@H](Cc2c[nH]c3ccccc23)C(=O)N[C@@H](CCCCN)C(=O)N[C@@H](CCC(N)=O)C(=O)N[C@@H](CCCNC(=N)N)C(=O)N[C@@H](CCCNC(=N)N)C(=O)N[C@H](C(=O)N[C@@H](CCC(N)=O)C(=O)N2CCC[C@H]2C(=O)N[C@H](C(=O)O)C(C)C)[C@@H](C)CC)[C@@H](C)CC)[C@@H](C)O)NC(=O)[C@H](CC(C)C)NC1=O` (stereo not given in full) (Ac-FSSNR[S5]K[ξIle]L[S5]RTQILNQEWKQRRIQPV-OH; staple (E) 6-10): the Kd at Polycomb protein EED [11] stood at 0.32 nM. Besides, the Activity in the series on KARPAS-422 [12] turned out to be 0.74; in [13], 0.11.

Compound `Cc1sc(NC(=O)CCCCC(=O)Nc2sc(C)c(C)c2C(N)=O)c(C(N)=O)c1C` came in with an IC50 in series [14] of 54.9 µM.

For `COC(=O)C1=C(C)NC(C)=C(C(=O)OC)C1c1ccccc1[N+](=O)[O-]` [NIFEDIPINE], the IC50 in series [3] was determined as 343 µM.

As to `CCCCC1C(=O)N(c2ccccc2)N(c2ccc(O)cc2)C1=O` (stereo not given) [OXYPHENBUTAZONE ANHYDROUS], in [3], the IC50 was determined as 229 µM.

Compound `Cc1ccc(C(C2=C(O)CC(C)(C)CC2=O)C2C(=O)CC(C)(C)CC2=O)s1` (stereo not given) yielded an IC50 in [14] of 63.9 µM.

In series [15], `CC[C@@H](C)n1cc(C)c2c(C(=O)NCc3c(C)cc(C)[nH]c3=O)cc(-c3ccc(N4CCNCC4)nc3)cc21` registered a bioavailability of 0.2%.

Values taken from ChEMBL document CHEMBL5236564, “An overview of the development of EED inhibitors to disable the PRC2 function” (RSC Med Chem, 2022).
